In US11051516B2, “Antimicrobial sanitizer compositions and their use” (GFS CORPORATION AUS PTY LTD, priority 2014, dated 2021):

Test system: Escherichia coli K12 NCTC 10538
Assay: Hygienic Handrub test BS EN 1500:2013 on human volunteers' hands
Format: in vivo
Description: The composition of Example 2 was tested for compliance with requirements for chemical disinfectants and antiseptics in accordance with European Standard BS EN 1500:2013 Chemical Disinfectants and Antiseptics—Hygienic Handrub—Test Method and Requirements. The test organism was Escherichia coli K12 NCTC 10538 which was obtained as a freeze dried ampoule and was reconstituted using Tryptone Soy Broth and incubated to achieve a concentration of 2×10^9 Cfu/mL. The reference standard was propan-2-ol 60% v/v solution in sterile water. There were no deviations from the standard test method.
Human volunteer's hands were washed for 1 minute with diluted soft soap (5 mL), rinsed in running water and dried with a paper towel for at least 30 seconds. The hands were immersed up to the mid-metacarpals for five seconds and the liquid was allowed to drain back into the container for a maximum of 30 seconds before allowing to air dry for three minutes.
The reference standard (3.0 mL) was applied and rubbed for 30 seconds. This was repeated with a second portion of reference standard (3.0 mL) and rubbing for a further 30 seconds. This procedure was repeated for 20 volunteers.
This protocol was repeated on 20 volunteers using the composition of Example 2.
The protocol of Example 16 was repeated for the composition of Example 4.

CC(C)O [reference standard, propan-2-ol]
Mean Log Reduction Factor (Example 16, 20 volunteers, 2 x 3.0 mL, rubbed 30 seconds each): 3.89
Mean Log Reduction Factor (Example 17, protocol of Example 16 repeated): 3.90
